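Assay format: 96-well plates, 48-hour exposure. Definition used: TGI = concentration required for complete inhibition of growth.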 Where a SMILES comes first, the peptide text is derived from it. The star is where a group is joined. Boc = CC(C)(C)OC(=O)*; OBn = c1ccc(CO*)cc1
Legend:
Assay in all cases: NCI-60 cell line screen, 48 h
A498 renal = test system: A498 renal
ACHN renal = test system: ACHN renal
CCRF-CEM leukemia = test system: CCRF-CEM leukemia
COLO 205 colon = test system: COLO 205 colon
HCC-2998 colon = test system: HCC-2998 colon
HCT-116 colon = test system: HCT-116 colon
HOP-92 NSCLC = test system: HOP-92 NSCLC
HT29 colon = test system: HT29 colon
LOX IMVI melanoma = test system: LOX IMVI melanoma
MCF7 breast = test system: MCF7 breast
MDA-MB-231 breast = test system: MDA-MB-231 breast
MDA-MB-435 = test system: MDA-MB-435
NCI-H522 lung = test system: NCI-H522 lung
NCI/ADR-RES ovarian = test system: NCI/ADR-RES ovarian
RPMI-8226 leukemia = test system: RPMI-8226 leukemia
SK-MEL-5 melanoma = test system: SK-MEL-5 melanoma
SK-OV-3 ovarian = test system: SK-OV-3 ovarian
T-47D breast = test system: T-47D breast
UACC-257 melanoma = test system: UACC-257 melanoma
HL-60(TB) leukemia = test system: HL-60(TB) leukemia

Structure (SMILES) | TGI (A498 renal) [µM] | TGI (ACHN renal) [µM] | TGI (CCRF-CEM leukemia) [µM] | TGI (COLO 205 colon) [µM] | TGI (HCC-2998 colon) [µM] | TGI (HCT-116 colon) [µM] | TGI (HOP-92 NSCLC) [µM] | TGI (HT29 colon) [µM] | TGI (LOX IMVI melanoma) [µM] | TGI (MCF7 breast) [µM] | TGI (MDA-MB-231 breast) [µM] | TGI (MDA-MB-435) [µM] | TGI (NCI-H522 lung) [µM] | TGI (NCI/ADR-RES ovarian) [µM] | TGI (RPMI-8226 leukemia) [µM] | TGI (SK-MEL-5 melanoma) [µM] | TGI (SK-OV-3 ovarian) [µM] | TGI (T-47D breast) [µM] | TGI (UACC-257 melanoma) [µM] | TGI (HL-60(TB) leukemia) [µM]
Cc1ccc(-n2cnc3c(N)nc(N)nc32)cc1 | > 100 | > 100 | > 100 | > 100 | > 100 | > 100 | > 100 | > 100 | > 100 | > 100 | > 100 | > 100 | > 100 | > 100 | > 100 | > 100 | > 100 | > 100 | > 100 | –
O=C1CC(=O)NC(=NN2C(=O)/C(=C/C(=O)c3ccco3)N=C2c2ccccc2)N1 | > 100 | > 100 | 51.7 | > 100 | > 100 | > 100 | > 100 | > 100 | – | > 100 | > 100 | > 100 | 79.8 | > 100 | – | – | > 100 | > 100 | > 100 | –
COC(=O)Nc1nc2ccc(S(=O)(=O)NC(CC(C)C)C(=O)OC)cc2[nH]1 (configuration not stated) | 28 | > 100 | > 100 | 59.3 | – | 19.1 | > 100 | 8.06 | > 100 | > 100 | > 100 | – | 0.888 | 59.6 | > 100 | 4.21 | > 100 | > 100 | – | 8.04
CCOC(=O)C(C(=O)OCC)=C1NC2(c3ccccc3Nc3ccc(C)cc32)C(C#N)S1 (configuration not stated) | 29.4 | 16.3 | > 100 | 14.6 | 11.3 | 22 | 14.2 | 15.1 | 24.4 | 11.9 | – | 23.5 | 30 | 25.7 | 4.63 | 20 | 98.9 | 34.6 | 45.6 | 61.2
CCN(CC)C1Oc2cc3c(cc2C(c2ccc(OC)cc2)C1C)OCO3 (configuration not stated) | 48.2 | 59.6 | 34 | 34.5 | 35.3 | 29.2 | 57.9 | 34.7 | 34.1 | 47.7 | 49.2 | 39.1 | 35.8 | – | 38 | 31.9 | 97.4 | 77 | 35.1 | –
O=c1c(C=Nc2ccccc2Cl)c(O)n(-c2ccccc2)c(=O)n1-c1ccccc1 | > 100 | > 100 | > 100 | > 100 | > 100 | > 100 | > 100 | > 100 | > 100 | > 100 | > 100 | > 100 | > 100 | > 100 | > 100 | > 100 | > 100 | > 100 | > 100 | –
Cc1oc2c(c1C)S(=O)(=O)C(C#N)C(c1ccccc1)N2 (configuration not stated) | > 100 | > 100 | 48.2 | > 100 | > 100 | > 100 | > 100 | > 100 | > 100 | > 100 | > 100 | > 100 | 40.2 | > 100 | – | > 100 | > 100 | > 100 | > 100 | –
Nc1nc(N)c2cc(Sc3ccc4nc(N)nc(N)c4c3)ccc2n1 | > 100 | > 100 | 0.0104 | > 100 | > 100 | > 100 | > 100 | > 100 | > 100 | – | > 100 | > 100 | – | > 100 | > 100 | – | > 100 | > 100 | > 100 | > 100
CC(C)C(NC(=O)C(Cc1ccccc1)NC(=O)OC(C)(C)C)C(=O)NCC(=O)OCc1ccccc1 (stereo not drawn) (Boc-Phe-Val-Gly-OBn; configuration not given here) | > 100 | 31.4 | 43 | 35.5 | 31.9 | 40 | – | 38.5 | 30.2 | – | 32.3 | 21.9 | 20.1 | > 100 | 42.5 | – | 28 | 36.7 | 41.9 | 34.4
CCN(CC)C(=C(C(Cl)=C(Cl)Cl)[N+](=O)[O-])N(CC)CC | > 100 | > 100 | > 100 | > 100 | > 100 | > 100 | – | > 100 | > 100 | > 100 | > 100 | – | – | > 100 | > 100 | > 100 | > 100 | > 100 | > 100 | > 100

Source: PubChem BioAssay (NCI)
